# Experimental data: patent publication US6525059B1, “Substituted pyrazoles as p38 kinase inhibitors” (G. D. Searle & Company, priority 1998, dated 2003)
# Structures can show the parent of a compound that is named as a salt.
# Tested on: TNF-α
# Experiment: Rat assay: LPS-challenged rats, serum TNF-α by ELISA
# Type: in vivo
# Conditions: Rattus norvegicus, po, Table 9, dose 20 mg/kg
row,SMILES,inhibition in vivo at 20 mg/kg [%]
1,"CCN1CCCCC1CCNc1cc(-c2c[nH]nc2-c2ccc(F)cc2)ccn1 (stereo not drawn) [Example A-358, N-[2-(1-ethyl-2-piperidinyl)ethyl]-4-[3-(4-fluorophenyl)-1H-pyrazol-4-yl]-2-pyridinamine]",71

# Tested on: not given
# Experiment: not given
# Conditions: not given
row,SMILES,melting point
1,"Cc1c(-c2ccncc2)c(-c2ccc(Cl)cc2)nn1C [Example A-204, 4-[3-(4-chlorophenyl)-1,5-dimethyl-1H-pyrazol-4-yl]pyridine]",82 to 88 °C
2,"NC(=O)c1cc(-c2cn[nH]c2-c2ccc(F)cc2)ccn1 [Example A-223, 4-[3-(4-fluorophenyl)-1H-pyrazol-4-yl]-2-pyridinecarboxamide]",230 to 231 °C
3,"Clc1ccccc1-c1[nH]ncc1-c1ccncc1 [Example A-209, 4-[3-(2-chlorophenyl)-1H-pyrazol-4-yl]pyridine]",208.46 °C
4,"CC(=O)n1ccc(-c2c(-c3ccncc3)c(-c3ccc(F)cc3)nn2CCO)cc1=O [Example A-195, 1-acetyl-4-[3-(4-fluorophenyl)-1-(2-hydroxyethyl)-4-(4-pyridinyl)-1H-pyrazol-5-yl]-2(1H)-pyridinone]",220 to 221 °C
5,CN1CCC(N(C)c2[nH]nc(-c3ccc(Cl)cc3)c2-c2ccncc2)CC1 (hydrate or solvate),260 to 261 °C
6,"OCCn1nc(-c2ccc(F)cc2)c(-c2ccncc2)c1C1CC1 [Example A-192, 5-cyclopropyl-3-(4-fluorophenyl)-4-(4-pyridinyl)-1H-pyrazole-1-ethanol]",155 to 157 °C
7,"COC(=O)c1cc(-c2c[nH]nc2-c2ccc(F)cc2)ccn1 [Example A-224, Methyl 4-[3-(4-fluorophenyl)-1H-pyrazol-4-yl]-2-pyridinecarboxylate]",239 to 241 °C
8,CN1CCN(c2n[nH]c(-c3ccc(C(F)(F)F)cc3)c2-c2ccncc2)CC1 [Example A-425],240.5 °C (dec.)
9,"CCNc1cc(-c2c[nH]nc2-c2cccc(Cl)c2)ccn1 [Example A-222, 4-[3-(3-chlorophenyl)-1H-pyrazol-4-yl]-N-ethyl-2-pyridinamine]",186 to 187 °C
10,"Fc1ccc(-c2n[nH]cc2-c2ccnc(Cl)n2)cc1 [Example A-299, 2-Chloro-4-[3-(4-fluorophenyl)-1H-pyrazol-4-yl]pyrimidine]",204 to 205 °C
11,"OCCn1nc(-c2ccc(F)cc2)c(-c2ccncc2)c1-c1cnc[nH]1 [Example A-198, 3-(4-fluorophenyl)-5-(4-imidazolyl)-4-(4-pyridinyl)-1H-pyrazole-1-ethanol]",227 to 228 °C
12,"Fc1ccc(-c2[nH]ncc2-c2ccncn2)cc1 [Example A-312, 4-[3-(4-fluorophenyl)-1H-pyrazol-4-yl]pyrimidine]",191.47 °C
13,"Fc1ccc(-c2[nH]nc(N3CCNCC3)c2-c2ccncc2)cc1 (as salt: hydrochloride) [Example A-172, 1-[5-(4-fluorophenyl)-4-(4-pyridinyl)-1H-pyrazol-3-yl]piperazine trihydrochloride]",204 to 206 °C
14,"COc1cc(-c2c(-c3ccncc3)c(-c3ccc(F)cc3)nn2CCO)ccn1 [Example A-193, 3-(4-fluorophenyl)-5-(2-methoxy-4-pyridinyl)-4-(4-pyridinyl)-1H-pyrazole-1-ethanol]",168 to 169 °C
15,"Cc1cc(-c2n[nH]cc2-c2ccncc2)ccc1Cl [Example A-199, 4-[3-(4-chloro-3-methylphenyl)-1H-pyrazol-yl]pyridine]",198.17 °C
16,"C#CCn1nc(N2CCNCC2)c(-c2ccncc2)c1-c1ccc(Cl)cc1 (as salt: hydrochloride) (hydrate or solvate) [Example A-318, 1-[5-(4-chlorophenyl)-4-(4-pyridinyl)-1-(2-propynyl)-1H-pyrazol-3-yl]piperazine, trihydrochloride monohydrate]",231 to 233 °C (dec.)
17,"CN1CCN(c2n[nH]c(-c3ccc(N(C)C)cc3)c2-c2ccncc2)CC1 [Example A-421, 1-[5-(4-dimethylaminophenyl)-4-(4-pyridinyl)-1H-pyrazol-3-yl]-4-methylpiperazine]",> 300 °C (dec.)
18,CSC(SC)=C(C(=O)c1ccc(Cl)cc1)c1ccncc1 [Example A-433],87.6 to 88.2 °C
19,"CCOC(=O)Nc1nccc(-c2cn[nH]c2-c2ccc(F)cc2)n1 [Example A-308, Ethyl [4-[3-(4-fluorophenyl)-1H-pyrazol-4-yl]-2-pyrimidinyl]carbamate]",163 to 165 °C
20,"Nc1nccc(-c2cn[nH]c2-c2ccc(F)cc2)n1 [Example A-306, 4-[3-(4-fluorophenyl)-1H-pyrazol-4-yl]-2-pyrimidinamine]",273 to 274 °C
21,Cc1ccc(S(=O)(=O)Nc2[nH]nc(-c3ccc(Cl)cc3)c2-c2ccncc2)cc1 [Example A-484],284.3 to 284.4 °C

row,SMILES,melting point
1,"CS(=O)(=O)N1CCN(c2[nH]nc(-c3ccc(Cl)cc3)c2-c2ccncc2)CC1 (hydrate or solvate) [Example A-320, 1-[5-(4-chlorophenyl)-4-(4-pyridinyl)-1H-pyrazol-3-yl]-4-(methylsulfonyl)piperazine, monohydrate]",245 to 248 °C
2,"Clc1cccc(-c2n[nH]cc2-c2ccnc(NCc3ccccc3)c2)c1 [Example A-220, 4-[3-(3-chlorophenyl)-1H-pyrazol-4-yl]-N-(phenylmethyl)-2-pyridinamine]",179 to 180 °C
3,"Clc1ccc(-c2[nH]nc(N3CCNCC3)c2-c2ccncc2)cc1 [Example A-328, 1-[5-(4-chlorophenyl)-4-(4-pyridinyl)-1H-pyrazol-3-yl]piperazine]",264 to 265 °C
4,"O=c1cc(-c2c(-c3ccncc3)c(-c3ccc(F)cc3)nn2CCO)cc[nH]1 [Example A-194, 4-[3-(4-fluorophenyl)-1-(2-hydroxyethyl)-4-(4-pyridinyl)-1H-pyrazol-5-yl]-2(1H)-pyridinone]",250 to 251 °C
5,"Cc1nn(C)c(-c2ccc(Cl)cc2)c1-c1ccncc1 [Example A-32, 4-[5-(4-chlorophenyl)-1,3-dimethyl-1H-pyrazol-4-yl]pyridine]",88.6 °C
6,"Clc1cccc(-c2n[nH]cc2-c2ccnc(NCCc3ccccc3)c2)c1 [Example A-221, 4-[3-(3-chlorophenyl)-1H-pyrazol-4-yl]-N-(phenylethyl)-2-pyridinamine]",185 to 186 °C
7,"CCN(CC)c1n[nH]c(-c2ccc(Cl)cc2)c1-c1ccncc1 [Example A-163, 5-(4-chlorophenyl)-N,N-diethyl-4-(4-pyridinyl)-1H-pyrazol-3-amine]",260 to 261 °C
8,"O.O.O=C(O)CCC(=O)N1CCN(c2n[nH]c(-c3ccc(Cl)cc3)c2-c2ccncc2)CC1 (hydrate or solvate) [A-321 (dihydrate), 4-[5-(4-chlorophenyl)-4-(4-pyridinyl)-1H-pyrazol-3-yl]-γ-oxo-1-piperazinebutanoic acid, dihydrate]",281 to 283 °C (dec.)
9,"CC(C)(C)OC(=O)N1CCN(c2n[nH]c(-c3ccc(F)cc3)c2-c2ccncc2)CC1 [Example A-171, 1,1-dimethylethyl 4-[5-(4-fluorophenyl)-4-(4-pyridinyl)-1H-pyrazol-3-yl]-1-piperazinecarboxylate]",243 to 244 °C
10,O=C(Cc1ccncc1)c1ccc(Cl)cc1 [Example A-431],95.5 to 97.3 °C
11,O=C(C(=C1SCS1)c1ccncc1)c1ccc(I)cc1 [Example A-401],257.6 to 257.7 °C
12,"CCc1cccc(-c2[nH]nc(C)c2-c2ccncc2)c1 [Example A-185, 4-[3-(3-ethylphenyl)-5-methyl-1H-pyrazol-4-yl]pyridine]",189.25 °C
13,"COC(=O)N1CCN(c2[nH]nc(-c3ccc(Cl)cc3)c2-c2ccncc2)CC1 (hydrate or solvate) [Example A-319, methyl 4-[5-(4-chlorophenyl)-4-(4-pyridinyl)-1H-pyrazol-3-yl]-1-piperazinecarboxylate, monohydrate]",264 to 265 °C
14,"CN1CCN(c2n[nH]c(-c3cccc(C#N)c3)c2-c2ccncc2)CC1 [Example A-422, 1-[5-(3-cyanophenyl)-4-(4-pyrdinyl)-1H-pyrazol-3-yl]4-methylpiperazine]",223.4 to 224.3 °C
15,"CN(C)c1nccc(-c2cn[nH]c2-c2ccc(F)cc2)n1 [Example A-301, 4-[3-(4-fluorophenyl)-1H-pyrazol-4-yl]-N,N-dimethyl-2-pyrimidinamine]",155 to 156 °C
16,CSC(SC)=C(C(=O)c1ccc(F)cc1)c1ccncc1 [Example A-432],80.2 to 82.1 °C
17,"Fc1cccc(-c2[nH]ncc2-c2ccncn2)c1 [Example A-311, 4-[3-(3-fluorophenyl)-1H-pyrazol-4-yl]pyrimidine]",168.58 °C
18,"Cc1cccc(-c2[nH]ncc2-c2ccncn2)c1 [Example A-309, 4-[3-(3-methylphenyl)-1H-pyrazol-4-yl]pyrimidine]",151.67 °C
19,"CCc1cccc(-c2[nH]nc(CC)c2-c2ccncc2)c1 [Example A-187, 4-[3-ethyl-5-(3-ethylphenyl)-1H-pyrazol-4-yl]pyridine]",192.66 °C
20,"Fc1ccc(-c2[nH]ncc2-c2ccnc(NC3CC3)n2)cc1 [Example A-304, N-cyclopropyl-4-[3-(4-fluorophenyl)-1H-pyrazol-4-yl]-2-pyrimidinamine]",203 to 204 °C
21,Cn1nc(-c2ccc(F)cc2)c(-c2ccncc2)c1C1CC1 [Example A-191],129 to 130 °C

# Tested on: human TNF
# Experiment: TNF inhibition: human whole blood assay
# Type: cell-based
# Conditions: Homo sapiens, Table 9, human whole blood, LPS; read-out: TNF Inhibition-Human Whole Blood Assay
row,SMILES,IC50 [µM]
1,"CCN1CCCCC1CCNc1cc(-c2c[nH]nc2-c2ccc(F)cc2)ccn1 (stereo not drawn) [Example A-358, N-[2-(1-ethyl-2-piperidinyl)ethyl]-4-[3-(4-fluorophenyl)-1H-pyrazol-4-yl]-2-pyridinamine]",4

# Target: T1, human GST-p38 kinase alpha (Homo sapiens, UniProt Q16539)
# T1 construct: The coding region of the human p38a cDNA was obtained by PCR-amplification from RNA isolated from the human monocyte cell line THP.1; made in house; host or cells: E. coli DH10B
# T1 sequence (Q16539 whole entry): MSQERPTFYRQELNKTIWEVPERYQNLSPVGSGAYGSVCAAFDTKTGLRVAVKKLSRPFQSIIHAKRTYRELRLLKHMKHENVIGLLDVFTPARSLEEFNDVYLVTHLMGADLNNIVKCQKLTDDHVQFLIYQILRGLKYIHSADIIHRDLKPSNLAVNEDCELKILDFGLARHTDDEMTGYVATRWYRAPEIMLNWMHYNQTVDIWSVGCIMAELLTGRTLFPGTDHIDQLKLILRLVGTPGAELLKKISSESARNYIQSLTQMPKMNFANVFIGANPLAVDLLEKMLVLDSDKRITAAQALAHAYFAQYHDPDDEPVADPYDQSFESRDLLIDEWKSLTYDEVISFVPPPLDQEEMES
# Experiment: p38 kinase in vitro assay, second format, phosphorylation of EGFRP with 33P-ATP
# Type: biochemical
# Conditions: Table 9, 10% DMSO; read-out: p38α Kinase Assay IC50
# Outline: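 Activated human GST-p38α (pre-activated with GST-MKK6, 1 h, 30 °C) phosphorylates EGFR 21-mer peptide (200 μM) with 50 μM ATP plus γ-33P-ATP, pH 7.5, 60 min at room temperature. Unreacted ATP removed by AG 1×8 resin; supernatant scintillation-counted.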
row,SMILES,IC50 [nM]
1,"CCN1CCCCC1CCNc1cc(-c2c[nH]nc2-c2ccc(F)cc2)ccn1 (stereo not drawn) [Example A-358, N-[2-(1-ethyl-2-piperidinyl)ethyl]-4-[3-(4-fluorophenyl)-1H-pyrazol-4-yl]-2-pyridinamine]",230
